Earlier results as cited in US20070088012A1, “Method of treating or preventing type-2 diabetes” (priority 2005, published 2007).

C[C@]12CC[C@H]3[C@@H](CCC4=CC(=O)CC[C@@]43C)[C@@H]1CC[C@@H]2O [Testosterone, testosterone]
bound to protein in the blood (circulating testosterone): 98%
share bound weakly to albumin (in men): 60%
share of the binding to sex hormone binding globulin (SHBG) (in men): approximately 40%
Metabolic Clearance Rate of Daily Testosterone (men): ^aMetabolic Clearance Rate of Daily Testosterone = 600 L/day
half-life of testosterone (reported in the literature): 10 to 100 min
